Data taken from patent publication US4684664A, “Derivatives of β-(4-isocyano-1,2,3,4-diepoxycyclopentyl) acrylic acid” (Kureha Kagaku Kogyo Kabushiki Kaisha, priority 1984, dated 1987).

Legend:
Assay type in all cases: cell-based
[1] = tested on: Enterobacter aerogenes ATCC 13048; assay: Antibacterial activity, agar-dilution MIC, organism No. 23; conditions: Klebsiella aerogenes, ATCC13048; Organism No. 23, bouillon-agar; read-out: Minimum Inhibitory Concentration
Summary of the method: (§1)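 Endpoint: MIC in μg/ml of culture medium. Method: agar dilution. Medium: bouillon agar.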

[2] = tested on: Salmonella enteritidis G 14; assay: Antibacterial activity, agar-dilution MIC, organism No. 12; conditions: Salmonella enterica, ENTERITIDIS; Organism No. 12, bouillon-agar; read-out: Minimum Inhibitory Concentration
Summary of the method: as §1

[3] = tested on: Aspergillus niger IFO 6342; assay: Antifungal activity, agar-dilution MIC, organism No. 30; conditions: Aspergillus niger, IFO6342; Organism No. 30, bouillon-agar; read-out: Minimum Inhibitory Concentration
Summary of the method: as §1

Enterobacter cloacae 963 = assay: Antibacterial activity, agar-dilution MIC, organism No. 24; conditions: Enterobacter cloacae, 963; Organism No. 24, bouillon-agar; read-out: Minimum Inhibitory Concentration
Summary of the method: as §1

[4] = tested on: Proteus morganii IFO 3848; assay: Antibacterial activity, agar-dilution MIC, organism No. 18; conditions: Morganella morganii, IFO3848; Organism No. 18, bouillon-agar; read-out: Minimum Inhibitory Concentration
Summary of the method: as §1

[5] = tested on: Serratia marcescens IAM 1184; assay: Antibacterial activity, agar-dilution MIC, organism No. 13; conditions: Serratia marcescens, IAM1184; Organism No. 13, bouillon-agar; read-out: Minimum Inhibitory Concentration
Description: Agar-dilution method was used for determination of the antibacterial activity and antifungal activity while using bouillon-agar culture medium, and the minimum inhibitory concentration of the specimen was expressed by μg/ml of the culture medium.

[6] = tested on: Salmonella shottmuelleri 8006; assay: Antibacterial activity, agar-dilution MIC, organism No. 11; conditions: Salmonella, 8006; Organism No. 11, bouillon-agar; read-out: Minimum Inhibitory Concentration
Summary of the method: as §1

[7] = tested on: Salmonella paratyphi-A 1015; assay: Antibacterial activity, agar-dilution MIC, organism No. 10; conditions: Salmonella enterica, PARATYPHI, read-out: Minimum Inhibitory Concentration
Summary of the method: as §1

Salmonella typhi 901 = assay: Antibacterial activity, agar-dilution MIC, organism No. 9; conditions: Salmonella enterica, TYPHI, read-out: Minimum Inhibitory Concentration
Summary of the method: as §1

[8] = tested on: Bacillus subtilis ATCC 6633; assay: Antibacterial activity, agar-dilution MIC, organism No. 14; conditions: Bacillus subtilis, ATCC6633; Organism No. 14, bouillon-agar; read-out: Minimum Inhibitory Concentration
Summary of the method: as §1

[9] = tested on: Escherichia coli K12 C600 IAM 1264; assay: Antibacterial activity, agar-dilution MIC, organism No. 6; conditions: Escherichia coli, IAM1264; Organism No. 6, bouillon-agar; read-out: Minimum Inhibitory Concentration
Summary of the method: as §1

[10] = tested on: Escherichia coli NIHJ-JC-2; assay: Antibacterial activity, agar-dilution MIC, organism No. 5; conditions: Escherichia coli, NIHJJC2; Organism No. 5, bouillon-agar; read-out: Minimum Inhibitory Concentration
Summary of the method: as §1

[11] = tested on: Pseudomonas aeruginosa PAO 1; assay: Antibacterial activity, agar-dilution MIC, organism No. 17; conditions: Pseudomonas aeruginosa, PAO1; Organism No. 17, bouillon-agar; read-out: Minimum Inhibitory Concentration
Summary of the method: as §1

[12] = tested on: Pseudomonas aeruginosa IFO 3445; assay: Antibacterial activity, agar-dilution MIC, organism No. 15; conditions: Pseudomonas aeruginosa, IFO3445; Organism No. 15, bouillon-agar; read-out: Minimum Inhibitory Concentration
Summary of the method: as §1

[13] = tested on: Proteus mirabilis IFO 3849; assay: Antibacterial activity, agar-dilution MIC, organism No. 19; conditions: Proteus mirabilis, IFO3849; Organism No. 19, bouillon-agar; read-out: Minimum Inhibitory Concentration
Summary of the method: as §1

[14] = tested on: Proteus rettgeri IFO 3850; assay: Antibacterial activity, agar-dilution MIC, organism No. 22; conditions: Providencia rettgeri, IFO3850; Organism No. 22, bouillon-agar; read-out: Minimum Inhibitory Concentration
Summary of the method: as §1

[15] = tested on: Staphylococcus aureus FDA 209PJc-1; assay: Antibacterial activity, agar-dilution MIC, organism No. 1; conditions: Staphylococcus aureus, FDA209PJC1; Organism No. 1, bouillon-agar; read-out: Minimum Inhibitory Concentration
Summary of the method: as §1

[16] = tested on: Salmonella typhimurium IID 971; assay: Antibacterial activity, agar-dilution MIC, organism No. 8; conditions: Salmonella enterica; Organism No. 8, bouillon-agar; read-out: Minimum Inhibitory Concentration
Summary of the method: as §1

[17] = tested on: Candida albicans IAM 4905; assay: Antifungal activity, agar-dilution MIC, organism No. 29; conditions: Candida albicans, IAM4905; Organism No. 29, bouillon-agar; read-out: Minimum Inhibitory Concentration
Summary of the method: as §1

[18] = tested on: Klebsiella pneumoniae PCI-602; assay: Antibacterial activity, agar-dilution MIC, organism No. 7; conditions: Klebsiella pneumoniae, PCI602; Organism No. 7, bouillon-agar; read-out: Minimum Inhibitory Concentration
Summary of the method: as §1

[19] = tested on: Staphylococcus aureus MS 353; assay: Antibacterial activity, agar-dilution MIC, organism No. 3; conditions: Staphylococcus aureus, MS353; Organism No. 3, bouillon-agar; read-out: Minimum Inhibitory Concentration
Summary of the method: as §1

[20] = tested on: Micrococcus luteus ATCC 9341; assay: Antibacterial activity, agar-dilution MIC, organism No. 25; conditions: Micrococcus luteus, ATCC9341; Organism No. 25, bouillon-agar; read-out: Minimum Inhibitory Concentration
Summary of the method: as §1

[21] = tested on: Streptococcus pyogenes Cook; assay: Antibacterial activity, agar-dilution MIC, organism No. 4; conditions: Streptococcus pyogenes; Organism No. 4, bouillon-agar; read-out: Minimum Inhibitory Concentration
Summary of the method: as §1

[22] = tested on: Staphylococcus aureus Terajima; assay: Antibacterial activity, agar-dilution MIC, organism No. 2; conditions: Staphylococcus aureus; Organism No. 2, bouillon-agar; read-out: Minimum Inhibitory Concentration
Summary of the method: as §1

Proteus vulgaris OX-19 = assay: Antibacterial activity, agar-dilution MIC, organism No. 20; conditions: Proteus vulgaris, OX19; Organism No. 20, bouillon-agar; read-out: Minimum Inhibitory Concentration
Summary of the method: as §1

[23] = tested on: Pseudomonas aeruginosa NCTC 10490; assay: Antibacterial activity, agar-dilution MIC, organism No. 16; conditions: Pseudomonas aeruginosa, NCTC10490; Organism No. 16, bouillon-agar; read-out: Minimum Inhibitory Concentration
Summary of the method: as §1

Proteus vulgaris HX-19 = assay: Antibacterial activity, agar-dilution MIC, organism No. 21; conditions: Proteus vulgaris, HX19; Organism No. 21, bouillon-agar; read-out: Minimum Inhibitory Concentration
Summary of the method: as §1

Measured: MIC

[C-]#[N+]C12CC3(/C=C/C(=O)Nc4nc5ccccc5s4)OC3C1O2 (stereo not drawn) [compound 70]
1.56 µg/mL: [17] | [18] | [21] | Proteus vulgaris OX-19 | Proteus vulgaris HX-19
3.13 µg/mL: [7] | [8]
0.78 µg/mL: [22]
0.39 µg/mL: [15] | [19]
6.25 µg/mL: [3] | [4]
> 200 µg/mL: all other assays above

[C-]#[N+]C12CC3(/C=C/C(=O)Nc4nnc(C)s4)OC3C1O2 (stereo not drawn) [compound 71]
200 µg/mL: [2] | [3]
100 µg/mL: [6]
1.56 µg/mL: [15]
6.25 µg/mL: [19] | Proteus vulgaris OX-19 | Proteus vulgaris HX-19
25 µg/mL: Salmonella typhi 901
12.5 µg/mL: [4] | [7] | [17] | [21] | [22]
> 200 µg/mL: all other assays above
